From US10894782B2, “Modulators of P97 AAA ATPase activity” (University of Pittsburgh—Of the Commonwealth System of …, priority 2016, dated 2021)

Target: P97 (Homo sapiens (Human), UniProt P55072)
Test: P97 Biomolgreen ATPase assay, 200 μM ATP
Assay type: biochemical
Conditions: not given

Sequence of P97 (P55072 whole entry): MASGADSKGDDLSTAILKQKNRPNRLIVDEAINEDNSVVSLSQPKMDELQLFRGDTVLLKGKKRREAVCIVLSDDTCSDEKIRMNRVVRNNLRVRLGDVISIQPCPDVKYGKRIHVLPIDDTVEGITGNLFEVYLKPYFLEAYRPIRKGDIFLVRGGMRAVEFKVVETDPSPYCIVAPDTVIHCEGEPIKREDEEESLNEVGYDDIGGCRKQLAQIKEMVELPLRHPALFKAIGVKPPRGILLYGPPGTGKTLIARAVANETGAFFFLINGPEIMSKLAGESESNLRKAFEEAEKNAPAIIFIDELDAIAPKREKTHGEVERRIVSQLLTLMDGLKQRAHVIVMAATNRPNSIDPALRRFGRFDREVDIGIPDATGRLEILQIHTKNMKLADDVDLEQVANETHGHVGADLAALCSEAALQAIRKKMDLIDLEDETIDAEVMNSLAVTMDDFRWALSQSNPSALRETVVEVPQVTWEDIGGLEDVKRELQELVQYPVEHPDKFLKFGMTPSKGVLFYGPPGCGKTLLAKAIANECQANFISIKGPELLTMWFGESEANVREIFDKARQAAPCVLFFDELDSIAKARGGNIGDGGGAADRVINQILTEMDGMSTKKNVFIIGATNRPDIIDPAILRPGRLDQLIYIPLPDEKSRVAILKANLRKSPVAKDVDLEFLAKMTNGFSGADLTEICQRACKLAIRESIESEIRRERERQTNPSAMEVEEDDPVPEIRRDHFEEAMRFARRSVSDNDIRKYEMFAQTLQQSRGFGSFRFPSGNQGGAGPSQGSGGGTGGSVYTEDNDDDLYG

P97 Biomolgreen; 200 μM ATP; IC50 (μM) | Compound
not active | CCC(=O)NCC#Cc1ccc(OCc2nnc(SC[C@@]3(C)CO3)n2-c2cccnc2)cc1C [Compound 130]

Same assay, conditions: P97 Biomolgreen, IC50 (μM)

IC50 [µM] | Compound
0.025 | [2H]C1([2H])C([2H])([2H])C([2H])([2H])C([2H])(Sc2nnc(COc3ccc(C#CCOC(=O)NCCN4CCN(C(C)C)CC4)c(C)c3)n2-c2cccnc2)C1([2H])[2H] [Compound 100]
0.048 | [2H]C1([2H])C([2H])([2H])C([2H])([2H])C([2H])(Sc2nnc(COc3ccc(C#CCO)c(C)c3)n2-c2cccnc2)C1([2H])[2H] [Compound 93]
0.2 | [2H]C1([2H])C([2H])([2H])C([2H])([2H])C([2H])(Sc2nnc(COc3ccc(C#CCNCC4(N5CCN(C(C)C)CC5)CCC4)c(C)c3)n2-c2cccnc2)C1([2H])[2H] [Compound 67]
0.02 | [2H]C1([2H])C([2H])([2H])C([2H])([2H])C([2H])(Sc2nnc(COc3ccc(C#CCOC(=O)NC)c(F)c3)n2-c2cccnc2)C1([2H])[2H] [Compound 106]
0.095 | [2H]C1([2H])C([2H])([2H])C([2H])([2H])C([2H])(Sc2nnc(COc3ccc(C#CCNC4CCN(C(C)C)CC4)c(C)c3)n2-c2cccnc2)C1([2H])[2H] [Compound 38]
0.16 | [2H]C1([2H])C([2H])([2H])C([2H])([2H])C([2H])(Sc2nnc(COc3ccc(C#CC(C)OC(=O)NC(C)C)c(C)c3)n2-c2cccnc2)C1([2H])[2H] (centres unmarked) [Compound 1]
0.16 | [2H]C1([2H])C([2H])([2H])C([2H])([2H])C([2H])(Sc2nnc(COc3ccc(C#CC(C)OC)c(C)c3)n2-c2cccnc2)C1([2H])[2H] (centres unmarked) [Compound 27]
0.17 | [2H]C1([2H])C([2H])([2H])C([2H])([2H])C([2H])(Sc2nnc(COc3ccc(C#CCNCCN4CCN(C)CC4)c(C)c3)n2-c2cccnc2)C1([2H])[2H] [Compound 68]
0.026 | [2H]C1([2H])C([2H])([2H])C([2H])([2H])C([2H])(Sc2nnc(COc3ccc(C#CCOC(=O)NC)c(C)c3)n2-c2cccnc2)C1([2H])[2H] [Compound 24]
0.069 | [2H]C1([2H])C([2H])([2H])C([2H])([2H])C([2H])(Sc2nnc(COc3ccc(C#CCOC)c(C)c3)n2-c2cccnc2)C1([2H])[2H] [Compound 36]
0.01 | [2H]C1([2H])C([2H])([2H])C([2H])([2H])C([2H])(Sc2nnc(COc3cc(F)c(C#CCOC(=O)NC4CCN(C)CC4)cc3F)n2-c2cccnc2)C1([2H])[2H] [Compound 124]
0.19 | [2H]C1([2H])C([2H])([2H])C([2H])([2H])C([2H])(Sc2nnc(COc3ccc(C#CCNC(=O)OC(C)(C)C)c(C)c3)n2-c2cccnc2)C1([2H])[2H] [Compound 46]

Same assay, conditions: read-out: P97 Biomolgreen, IC50

IC50 [µM] | Compound
0.052 | Cc1cc(OCc2nnc(SC3C=CCCC3)n2-c2cccnc2)ccc1C#CCNC(=O)NCCN1CCN(C(C)C)CC1 (centres unmarked) [Compound 73]
0.03 | Cc1cc(OCc2nnc(SC3CCCC3)n2-c2cccnc2)ccc1C#CCOC(=O)NCCOCCNC(=O)CC1[C@H]2C[C@@H]3C[C@@H](C[C@H]1C3)C2 (some centres unmarked) [Compound 111]
2.11 | Cc1cc(OCc2nnc(SC3C=CCCC3)n2-c2cncc(Cl)c2)ccc1C#CCO (centres unmarked) [Compound 84]
0.019 | Cc1cc(OCc2nnc(SC3C=CCCC3)n2-c2cccnc2)ccc1C#CCOC(=O)NCCN1CCN(C(C)C)CC1 (centres unmarked) [Compound 60]
0.23 | Cc1cc(OCc2nnc(SC3CCCC=C3F)n2-c2cccnc2)ccc1C#CCOC(=O)NCCN1CCN(C)CC1 (centres unmarked) [Compound 80]
0.44 | C#Cc1ccc(OCc2nnc(CC3CCCC3)n2-c2cccnc2)cc1C [Compound 51]
0.017 | CN1CCC(NC(=O)OCC#Cc2ccc(OCc3nnc(SC4C=CCCC4)n3-c3cccnc3)c(F)c2F)CC1 (centres unmarked) [Compound 118]
0.64 | Cc1cc(OCc2nnc(SC3C=CCCC3)n2-c2cccnc2)ccc1C#CC(C)(C)NC(=O)OC(C)(C)C (centres unmarked) [Compound 45]
0.036 | Cc1cc(OCc2nnc(SC3C=CCCC3)n2-c2cccnc2)ccc1C#CCNC1CCN(C)CC1 (centres unmarked) [Compound 19]
0.03 | Cc1cc(OCc2nnc(SC3C=CCCC3)n2-c2cccnc2)ccc1C#CCNC(=O)C1CC1 (centres unmarked) [Compound 103]
0.096 | Cc1cc(OCc2nnc(SC3C=CCCC3)n2-c2cccnc2)ccc1C#CC(C)(C)O (centres unmarked) [Compound 28]
0.029 | COC(=O)NCC#Cc1ccc(OCc2nnc(SC3CCCC3)n2-c2cccnc2)cc1C [Compound 12]
2 | Cc1cc(OCc2nnc(SC3CC3)n2-c2cccnc2)ccc1C#CCNC(=O)OC(C)(C)C [Compound 54]
0.019 | Cc1cc(OCc2nnc(SC3C=CCCC3)n2-c2cccnc2)ccc1C#CCOC(=O)NCCN1CCN(C(C)C)CC1 (centres unmarked) [Compound 29]
0.039 | Cc1cc(OCc2nnc(SC3CCCC3)n2-c2cccnc2)ccc1C#CCN1CCOCC1 [Compound 8]
0.51 | Cc1cc(OCc2nnc(SC3CCCC=C3F)n2-c2cccnc2)ccc1C#CCO (centres unmarked) [Compound 74]
0.025 | CCC(=O)NCC#Cc1ccc(OCc2nnc(SC3C=CCCC3)n2-c2cccnc2)cc1C (centres unmarked) [Compound 112]
0.021 | Cc1cc(OCc2nnc(SC3CCCC3)n2-c2cccnc2)ccc1C#CC#N [Compound 5]
1.1 | Cc1cc(OCc2nnc(SC3C=CCCC3)n2-c2cccnc2)ccc1C#CC1(NC(=O)OC(C)(C)C)CCCCC1 (centres unmarked) [Compound 53]
0.02 | CN1CCN(CCNC(=O)OCC#Cc2ccc(OCc3nnc(SC4C=CCCC4)n3-c3cccnc3)cc2F)CC1 (centres unmarked) [Compound 77]
0.05 | Cc1cc(C(=O)NCC#Cc2ccc(OCc3nnc(SC4C=CCCC4)n3-c3cccnc3)cc2C)no1 (centres unmarked) [Compound 104]
0.13 | Cc1ccc(S(=O)(=O)NCC#Cc2ccc(OCc3nnc(SC4C=CCCC4)n3-c3cccnc3)cc2C)cc1 (centres unmarked) [Compound 7]
0.33 | C=CCSc1nnc(COc2ccc(C#CCNC(=O)CC)c(C)c2)n1-c1cccnc1 [Compound 131]

IC50 [µM] | Compound
0.16 | Cc1cc(OCc2nnc(SC3CCCC=C3F)n2-c2cccnc2)ccc1C#CCOC(=O)NCCN1CCN(C(C)C)CC1 (centres unmarked) [Compound 81]
0.048 | Cc1cc(OCc2nnc(SC3CCCC3)n2-c2cccnc2)ccc1C#CCNC(=O)OC(C)(C)C [Compound 43]
0.028 | Cc1cc(OCc2nnc(SC3CCCC3)n2-c2cccnc2)ccc1C#CCO [Compound 89]
0.06 | Cc1cc(OCc2nnc(SC3C=CCCC3)n2-c2cccnc2)ccc1C#CCNCCN(C)C (centres unmarked) [Compound 88]
0.06 | C=C(C)C(=O)NCC#Cc1ccc(OCc2nnc(SC3C=CCCC3)n2-c2cccnc2)cc1C (centres unmarked) [Compound 86]
0.066 | Cc1cc(OCc2nnc(CC3CCCC3)n2-c2cccnc2)ccc1C#CCOC(=O)NCCN1CCN(C)CC1 [Compound 69]
0.007 | Cc1cc(OCc2nnc(SC3CCCC3)n2-c2cccnc2)ccc1C#CCNC(C)C [Compound 11]
0.029 | Cc1cc(OCc2nnc(SC3C=CCCC3)n2-c2cccnc2)ccc1C#CCOC(=O)NCCC(=O)N1CCN(C)CC1 (centres unmarked) [Compound 61]
0.058 | C/C=C/C(=O)NCC#Cc1ccc(OCc2nnc(SC3C=CCCC3)n2-c2cccnc2)cc1C (centres unmarked) [Compound 87]
0.04 | COc1cc(C#CCO)c(F)cc1OCc1nnc(SC2C=CCCC2)n1-c1cccnc1 (centres unmarked) [Compound 116]
0.055 | Cc1cc(OCc2nnc(SC3C=CCCC3)n2-c2cccnc2)ccc1C#CCNC(C)C (centres unmarked) [Compound 16]
0.035 | Cc1cc(OCc2nnc(SC3C=CCCC3)n2-c2cccnc2)ccc1C#CCNS(C)(=O)=O (centres unmarked) [Compound 14]
2.77 | CCC(=O)NCC#Cc1ccc(OCc2nnc(SCC(=O)CCl)n2-c2cccnc2)cc1C [Compound 132]
0.019 | COc1cc(C#CCOC(=O)NC2CCN(C)CC2)c(F)cc1OCc1nnc(SC2C=CCCC2)n1-c1cccnc1 (centres unmarked) [Compound 122]
0.06 | Cc1cc(OCc2nnc(SC3C=CCCC3)n2-c2cccnc2)ccc1C#CCNS(=O)(=O)N1CCCC1 (centres unmarked) [Compound 64]
0.037 | Cc1cc(OCc2nnc(SC3C=CCCC3)n2-c2cccnc2)ccc1C#CCO (centres unmarked) [Compound 79]
0.18 | Cc1cc(OCc2nnc(SC3C=CCCC3)n2-c2cccnc2)ccc1C#CC1(O)CN(C(=O)OC(C)(C)C)C1 (centres unmarked) [Compound 72]
0.084 | Cc1cc(OCc2nnc(SC3C=CCCC3)n2-c2cccnc2)ccc1C#CCOC(=O)NCCN1CCN(C(C)C)CC1 (centres unmarked) [Compound 90]
0.18 | Cc1cc(OCc2nnc(SC3CCCC3)n2-c2cccnc2)ccc1C#CCN1CCS(=O)(=O)CC1 [Compound 44]
0.12 | Cc1cc(OCc2nnc(CC3CCCC3)n2-c2cccnc2)ccc1C#CCOC(=O)NCCN1CCN(C(C)C)CC1 [Compound 66]
0.035 | Cc1cc(OCc2nnc(SC3C=CCCC3)n2-c2cccnc2)ccc1C#CCNS(=O)(=O)C1CC1 (centres unmarked) [Compound 18]
0.025 | Cc1cc(OCc2nnc(SC3C=CCCC3)n2-c2cccnc2)ccc1C#CCOC(=O)NCCN1CCN(C)CC1 (centres unmarked) [Compound 59]
0.026 | OCC#Cc1ccc(OCc2nnc(SC3C=CCCC3)n2-c2cccnc2)cc1F (centres unmarked) [Compound 97]
